Assay results as given in ChEMBL document CHEMBL3507680, “University of Dundee, Gates Library screen for HepG2 cell viability”.

Assay: Human HepG2 cell viability assay in 384 well format
Type: toxicity, cell-based
Design: dose 125 nL, time 70.5 hour; concentration not given beside the values
Details: HepG2 cells, read-out: Inhibition

Compound | cytotoxicity at 70.5 h
Cc1cnn(CC2CN(CCc3cccs3)CCO2)c1 (centres undefined) | -2.69%
CN1CCC2(CCN(c3ncc(F)cn3)CC2)C1=O | -1.11%
Cc1cccc(NC(=O)[C@@H]2CCCN2Cc2nc(C)c(C)o2)n1 | -9.4%
CSc1cccc(CN(C)C(=O)c2ccc(C3CCCNC3)cc2)c1 (centres undefined) | -7.25%
Cc1ccccc1CN(Cc1ccncc1)CC(C)C | -4.55%
Cc1cc(C)n(CCCNC(=O)C(C)NC(=O)c2ccccc2Cl)n1 (centres undefined) | -8.83%
O=C1[C@H]2CN(Cc3ccco3)C[C@H]2CN1c1ccsc1 | -11.1%
CC(=O)c1ccc(S(=O)(=O)N2CCOC(Cn3ccnc3)C2)cc1 (centres undefined) | -7.46%
CCN(CC(C)C#N)C(=O)CNc1ccc(C(N)=O)c(C)c1 (centres undefined) | -1.05%
COC1CN(C(=O)NC2CCCC2)CCC(=O)N(C)c2ccccc21 (centres undefined) | -1.11%
Cc1cc(Cn2cc(C#N)c(=O)c3ccccc32)no1 | -5.19%
CC(Oc1ccccc1C(F)(F)F)C(=O)NCCNC(=O)C1CC1 (centres undefined) | -6.09%
CC(C)=CCN1CCN(C(=O)CSc2ccccn2)[C@H]2CS(=O)(=O)C[C@H]21 | -8.43%
O=C(c1ccco1)N1CCc2c(COCC3CC3)cncc2C1 | -8.01%
O=C(Nc1nncs1)N1CCC(CCO)CC1 | -7.1%
COc1cccc(CNCC2CN(C)CCO2)c1 (centres undefined) | -7.17%
O=S(=O)(c1ccc(Cl)cc1)N1CCOC[C@H](Oc2cnccn2)C1 | 0.0647%
Cn1cnc2c1C(C(=O)N1CCCC1)N(S(C)(=O)=O)CC2 (centres undefined) | -7.56%
CN(c1ccc(-c2nc(C3CC3)no2)cn1)C1CCOCC1 | -3.42%
Cc1cc(C)c(CNC(=O)C2CCN(c3cnccn3)CC2)c(=O)[nH]1 | -3.48%
Cc1ccc(O)c(CNCC(C)c2nc3ccccc3o2)n1 (centres undefined) | -4.08%
CCOc1ccc(C(=O)N2CCC(Oc3ccccc3)(C(=O)O)CC2)o1 | -3.49%

Compound | cytotoxicity at 70.5 h
CCN1CCN(c2nsc(-c3cccnc3)c2C#N)CC1 | -5.08%
COc1ccc(N2CCN(C(=O)CCn3nnnc3C)CC2(C)C)cc1 | 14%
Cc1cc(NC(=O)CN2CCCC2Cn2nc(C)nc2C)n(C)n1 (centres undefined) | -14.8%
CCN1CC(C(=O)NCc2cccc(SC)c2)CC1=O (centres undefined) | 18%
Cn1ccnc1-c1nc2cc(S(=O)(=O)N3CCCC3)ccc2n1C | -26.2%
Cc1cc(CN(C)C2CCCN(c3cccnn3)C2)no1 (centres undefined) | -9.99%
O=C(NCc1ccco1)[C@@H]1CCO[C@@H]2CCN(c3ncccn3)C[C@@H]21 | 9.24%
Clc1cc(N2CCC(N3CCCC3)CC2)nc2[nH]ccc12 | -2.57%
COCCN1CCC2(CC1)C(=O)Nc1ccc(C(=O)NC(C)C)cc12 | 1.35%
NS(=O)(=O)CCNC(=O)c1nnn(-c2ccccc2)c1C1CC1 | -2.47%
O=C(c1ccoc1)N1CCCC2(CCC(=O)N2Cc2cccnc2)C1 (centres undefined) | 2.4%
O=C(CC1CC1)N1CCO[C@H]2[C@H](OCCCn3cccn3)CC[C@@H]21 | -4.17%
COCCOc1ccnc(-c2noc([C@@H]3CCCN3C)n2)c1 | -3.64%
COCC(=O)N1Cc2nccn2CC(Cn2ncccc2=O)C1 (centres undefined) | -10%
O=C(O)CC(CC(=O)N(Cc1ccsc1)C1CC1)c1cccs1 (centres undefined) | 20.8%
CCc1cc(C(=O)N2CCCn3nc(CCC(=O)O)cc3C2)cs1 | -8.44%
Cc1cc(C(=O)N(C)C2CCN(C)C2)c2ccc(F)cc2n1 (centres undefined) | 23.7%
O=C([C@H]1C[C@H]2OCC[C@H]2N(CC2CC2)C1)N1CCCCO1 | -4.54%
CCN(C)S(=O)(=O)NCC1(c2ccccc2Br)CC1 | 4.86%
COc1cccc(-n2nnc(C(=O)N3CCN(C)CC3C)c2C)c1 (centres undefined) | 56.4%
CO[C@@H]1CCN(Cc2nccn2C)[C@H]1Cc1cccnc1 | 12.4%
O=C(C1CCCCO1)N1CCc2ncnc(NCCO)c2CC1 (centres undefined) | -2.71%
